Reference: US7015228B2, “4-amino-2-(2-pyridyl)pyrimidines as microbicidal active substances” (Ciba Specialty Chemicals Corporation, priority 2001, dated 2006)
In brackets after ≈: the same amount, converted by molar mass.

How the values were obtained:
[1] = system: S. choleraesuis ATCC 10708; assay: Determination of the bactericidal activity (logarithmic reduction in organism count); format: cell-based, Salmonella choleraesuis; conditions: contact for 30 minutes at a substance concentration of 120 μg/mL
Description: (§1) Determination of the Bactericidal Activity of Selected Compounds
(§2) Casein-soybean flour-peptone broth for preparation of pre-cultures of test bacteria
(§3) Examples of Test Organisms:
(§4) • Staphylococcus aureus ATCC 6538 • Escherichia coli ATCC 10536 • Salmonella choleraesuis ATCC 10708 Procedure:
(§5) The test substances are dissolved in dimethyl sulfoxide (DMSO) and tested in a concentration of 120 μg/ml.
(§6) Bacteria are incubated overnight in CASO broth and adjusted to an organism count of 1–5×10^5 CFU/ml using 0.85% sodium chloride solution.
(§7) The test substances are pre-pipetted into microtitre plates in amounts of 8 μl per well.
(§8) The adjusted test organism suspensions are added in amounts of 192 μl per well to the test substances and mixed. After defined contact times, the test batches are mixed, an aliquot is withdrawn and diluted in several steps in a dilution series of 1:10 in a suitable inactivation medium.
The test plates are incubated for 24 hours at 37° C. […]
(§9) One microtitre plate is used for each test organism.
(§10) All the substances are tested in duplicate.

[2] = system: S. aureus ATCC 6538; assay: as above; format: cell-based, Staphylococcus aureus; conditions: contact for 30 minutes at a substance concentration of 120 μg/mL
Description: as §1, §2, §3, §4, §5, §6, §7, §8
The test plates are incubated for 24 hours at 37° C.
(§11) After incubation, the growth is determined on the basis of the turbidity of the test batches (optical density) at 620 nm in a microplate reader.
as §9, §10

[3] = system: E. coli NCTC 8196; assay: as above; format: cell-based, Escherichia coli; conditions: contact for 30 minutes at a substance concentration of 120 μg/mL
[4] = system: Trichophyton mentagrophytes ATCC 9533; assay: Minimum inhibitory concentration (MIC), further microorganisms; format: cell-based; conditions: Table 8; * = significant inhibition of growth, but not complete inhibition
Description: (§12) Determination of the Minimum Inhibitory Concentration (MIC Value) in Microtitre Plates
(§13) Casein-soybean flour-peptone broth for preparation of pre-cultures of test bacteria and yeast.
(§14) Mycological slant agar for the pre-culture of moulds
(§15) The test substances are pre-dissolved in dimethyl sulfoxide (DMSO) and tested in a dilution series of 1:2.
(§16) Bacteria and yeast are cultured overnight in CASO broth, the mould is cultured overnight on mycological slant agar, and washed off using 10 ml of 0.85% sodium chloride solution (+0.1% Triton X-100).
(§17) All the test organisms are adjusted to an organism count of 1–5×10^6 CFU/ml using 0.85% sodium chloride solution.
as §7
(§18) Pre-diluted organism suspensions are diluted 1:100 in CASO broth (bacteria and yeast) or Sabouraud 2% glucose broth (mould) and are added in amounts of 192 μl per well to the test substances.
(§19) The test batches are incubated for 48 hours at 37° C. (bacteria and yeast) or for 5 days at 28° C. (mould).
as §11
(§20) The minimum inhibitory concentration (MIC value) is the concentration of substance at which there is found (compared to the growth of the control) an appreciable inhibition of growth (≦20% growth) of the test organisms.
(§21) One microtitre plate is used for each test organism and substance concentration. All the substances are tested in duplicate.

[5] = system: Staphylococcus aureus ATCC 9144; assay: as above; format: cell-based; conditions: Table 8; * = significant inhibition of growth, but not complete inhibition
Description: as §12, §13, §14, §15, §16, §17, §7, §18, §19, §11, §20, §21

[6] = system: Micrococcus luteus ATCC 9341; assay: as above; format: cell-based; conditions: Table 8; * = significant inhibition of growth, but not complete inhibition
Description: as §12, §13, §14, §15, §16, §17, §7, §18, §19, §11, §20, §21

[7] = system: Enterococcus hirae ATCC 10541; assay: as above; format: cell-based; conditions: Table 8; * = significant inhibition of growth, but not complete inhibition
Description: as §12, §13, §14, §15, §16, §17, §7, §18, §19, §11, §20, §21

[8] = system: S. epidermidis ATCC 12228; assay: as above; format: cell-based; conditions: Table 8; * = significant inhibition of growth, but not complete inhibition
Description: as §12, §13, §14, §15, §16, §17, §7, §18, §19, §11, §20, §21

[9] = system: Epidermophyton floccosum DSM 10709; assay: as above; format: cell-based; conditions: Table 8; * = significant inhibition of growth, but not complete inhibition
Description: as §12, §13, §14, §15, §16, §17, §7, §18, §19, §11, §20, §21

[10] = system: Staphylococcus hominis DMS 20328; assay: Minimum inhibitory concentration (MIC) in microtitre plates; format: cell-based; conditions: Table 7; 48 hours at 37° C.; MIC = ≦20% growth compared to control
Description: as §12, §13, §14, §3, §15, §16, §17, §7, §18, §19, §11, §20, §21

[11] = system: Escherichia coli NCTC 8196; assay: as above; format: cell-based; conditions: for Minimum inhibitory concentration (MIC) E. coli: Table 7, 48 hours at 37° C., MIC = ≦20% growth compared to control; for Minimum inhibitory concentration (MIC) E. coli NCTC 8196: Table 8, * = significant inhibition of growth, but not complete inhibition
Description: as §12, §13, §14, §3, §15, §16, §17, §7, §18, §19, §11, §20, §21

Minimum inhibitory concentration (MIC) Trichophyton mentagrophytes ATCC 9533 [4] | Minimum inhibitory concentration (MIC) Staphylococcus aureus ATCC 9144 [5] | Minimum inhibitory concentration (MIC) Micrococcus luteus ATCC 9341 [6] [mg/L] | Minimum inhibitory concentration (MIC) Enterococcus hirae ATCC 10541 [7] [mg/L] | Minimum inhibitory concentration (MIC) S. epidermidis ATCC 12228 [8] [mg/L] | Minimum inhibitory concentration (MIC) Epidermophyton floccosum DSM 10709 [9] | Minimum inhibitory concentration (MIC) S. hominis [10] [mg/L] | Minimum inhibitory concentration (MIC) E. coli [11] [mg/L] | Minimum inhibitory concentration (MIC) E. coli NCTC 8196 [11] | Compound | Logarithmic reduction in organism count, S. choleraesuis ATCC 10708 [1] | Logarithmic reduction in organism count, S. aureus ATCC 6538 [2] | Logarithmic reduction in organism count, E. coli NCTC 8196 [3]
 |  |  |  |  |  |  |  |  | CCc1c(C)nc(-c2ccccn2)nc1NCCCCCCCCCCCCN [Compound of formula 7] | <1 log | 2 log | ≦1 log
 |  |  |  |  |  |  |  |  | CCCCCCCCNc1nc(-c2ccccn2)nc(C)c1CC [Compound of formula 9] | <1 log | <1 log | <1 log
 |  |  |  |  |  |  |  |  | CCCCCCCCCNc1nc(-c2ccccn2)nc(C)c1CC [Compound of formula 10] | <1 log | 1–2 log | <1 log
 |  |  |  |  |  |  |  |  | CCCCCCCCCCNc1nc(-c2ccccn2)nc(C)c1CC [Compound of formula 11] | <1 log | 1–2 log | ≦1 log
 |  |  |  |  |  |  |  |  | CCCCCCCCCCCCNc1nc(-c2ccccn2)nc(C)c1CC [Compound of formula 12] | <1 log | 1–2 log | <1 log
 |  |  |  |  |  |  |  |  | Cc1cc(NCCCCCCCCCN)nc(-c2ccccn2)n1 [Compound of formula 18] | <1 log | 1 log | <1 log
 |  |  |  |  |  |  |  |  | Cc1cc(NCCCCCCCCCCCCN)nc(-c2ccccn2)n1 [Compound of formula 19] | <1 log | 2–3 log | ≦1 log
 |  |  |  |  |  |  |  |  | CCCCCCCCNc1cc(C)nc(-c2ccccn2)n1 [Compound of formula 21] | <1 log | 1–2 log | <1 log
 |  |  |  |  |  |  |  |  | CCCCCCCCCNc1cc(C)nc(-c2ccccn2)n1 [Compound of formula 22] | <1 log | 1–2 log | <1 log
 |  |  |  |  |  |  |  |  | CCCCCCCCCCNc1cc(C)nc(-c2ccccn2)n1 [Compound of formula 23] | <1 log | 3 log | <1 log
 |  |  |  |  |  |  |  |  | CCCCCCCCCCCCNc1cc(C)nc(-c2ccccn2)n1 [Compound of formula 24] | <1 log | 2 log | ≦1 log
 |  |  |  |  |  |  |  |  | NCCCCCCCCCNc1cc(C(F)(F)F)nc(-c2ccccn2)n1 [Compound of formula 30] | ≦1 log | ≦1 log | <1 log
 |  |  |  |  |  |  |  |  | CCCCCCCNc1cc(C(F)(F)F)nc(-c2ccccn2)n1 [Compound of formula 32] | ≦1 log | <1 log | <1 log
 |  |  |  |  |  |  |  |  | CCCCCCCCNc1cc(C(F)(F)F)nc(-c2ccccn2)n1 [Compound of formula 33] | <1 log | <1 log | <1 log
 |  |  |  |  |  |  |  |  | CCCCCCCCCNc1cc(C(F)(F)F)nc(-c2ccccn2)n1 [Compound of formula 34] | <1 log | <1 log | <1 log
 |  |  |  |  |  |  |  |  | CCCCCCCCCCNc1cc(C(F)(F)F)nc(-c2ccccn2)n1 [Compound of formula 35] | <1 log | <1 log | <1 log
 |  |  |  |  |  |  |  |  | CCCCCCCCNc1cc(C(C)(C)C)nc(-c2ccccn2)n1 [Compound of formula 57] | <1 log |  | <1 log
>60 mg/L | *1.9 μg/mL | <0.5 | 7.5 (≈ 21.2 µM) | 1.9 (≈ 5.36 µM) | >60 µg/mL | 3.75 (≈ 10.6 µM) | >120 | >60 mg/L | CCCCCCCCCNc1cc(C(C)(C)C)nc(-c2ccccn2)n1 [compound 58] |  |  | 
>60 mg/L | 15 mg/L (≈ 45.9 µM) | 3.75 (≈ 11.5 µM) | 7.5 (≈ 23 µM) | 15 (≈ 45.9 µM) | 60* μg/mL | 7.5 (≈ 23 µM) | >120 | >30 mg/L | CCCCCCCNc1nc(-c2ccccn2)nc(C)c1C(C)C [compound 68] |  |  | 
15 mg/L (≈ 42.3 µM) | 7.5 mg/L (≈ 21.2 µM) | 1.0 (≈ 2.82 µM) | 3.75 (≈ 10.6 µM) | 7.5 (≈ 21.2 µM) | *7.5 μg/mL | 3.75 (≈ 10.6 µM) | >120 | >60 mg/L | CCCCCCCCCNc1nc(-c2ccccn2)nc(C)c1C(C)C [compound 70] |  |  | 
*30 μg/mL | 7.5 mg/L (≈ 20.3 µM) | 1.9 (≈ 5.16 µM) | 7.5 (≈ 20.3 µM) | 7.5 (≈ 20.3 µM) | 60 µg/mL (≈ 163 µM) | 5 (≈ 13.6 µM) | >80 | >60 mg/L | CCCCCCCCCCNc1nc(-c2ccccn2)nc(C)c1C(C)C [compound 71] |  |  | 
>60 mg/L | *15 μg/mL | 3.75 (≈ 10.1 µM) | 30 (≈ 81 µM) | 15 (≈ 40.5 µM) | >60 µg/mL | 7.5 (≈ 20.2 µM) | >120 | >60 mg/L | CCCCCCCCCCNc1cc(CCOC)nc(-c2ccccn2)n1 [compound 83] |  |  | 

Compound | Minimum inhibitory concentration (MIC) Trichophyton mentagrophytes ATCC 9533 [4] | Minimum inhibitory concentration (MIC) Staphylococcus aureus ATCC 9144 [5] | Minimum inhibitory concentration (MIC) Micrococcus luteus ATCC 9341 [6] [mg/L] | Minimum inhibitory concentration (MIC) Enterococcus hirae ATCC 10541 [7] [mg/L] | Minimum inhibitory concentration (MIC) S. epidermidis ATCC 12228 [8] [mg/L] | Minimum inhibitory concentration (MIC) Epidermophyton floccosum DSM 10709 [9] | Minimum inhibitory concentration (MIC) S. hominis [10] [mg/L] | Minimum inhibitory concentration (MIC) E. coli [11] [mg/L] | Minimum inhibitory concentration (MIC) E. coli NCTC 8196 [11] | Logarithmic reduction in organism count, S. choleraesuis ATCC 10708 [1] | Logarithmic reduction in organism count, S. aureus ATCC 6538 [2] | Logarithmic reduction in organism count, E. coli NCTC 8196 [3]
CC(C)(C)c1cc(NCCc2ccccc2)nc(-c2ccccn2)n1 [compound 63] | *60 μg/mL | 15 mg/L (≈ 45.1 µM) | 7.5 (≈ 22.6 µM) | 30 (≈ 90.2 µM) | 30 (≈ 90.2 µM) | *15 μg/mL | 3.75 (≈ 11.3 µM) | >120 | *60 μg/mL |  |  | 
